Measurements taken from patent publication US20140271485A1, “USE OF COELENTERAZINE FOR IMAGING INSULIN-GENERATING BETA-CELLS” (The Board of Trustees of the Leland Stanford Junior …, priority 2013, published 2014).
“Also recorded” adds a separate entry of the source.

Columns and labels:
[1] = test system: rat insulinoma cell lines (RIN5F β-cell line); assay: In vitro bioluminescence imaging of cell lines with coelenterazine (cell plate assay); format: cell-based
Experimental: FIG. 1A is a digital image illustrating a cell plate assay. 10^5 cells of each cell line were washed two times in serum-free RPMI and plated in a 96-well black plate. Coelenterazine was added to a final concentration of 10 μM and the plate imaged. RIN5F is a β-cell line and the remainder are control cell lines.
FIG. 1B is a graph illustrating the quantification of the bioluminescence signals of FIG. 1A. Error bars represent the standard error.
In vitro experiments for the imaging cell lines may be completed on the day of cell collection or following incubation. If imaging is performed following prolonged incubation combined with comparisons between dissimilar cell lines, it is important to consider the likelihood of there being a different division rate for each cell line.
For same-day imaging, the cells are collected by a method dictated by the particular cell line. Cells are washed twice in imaging buffer by repeated resuspension and centrifugation (a variety of buffers have proven effective, including: PBS, DPBS and Krebs). […] The desired concentration of cells is added to an imaging plate.
Coelenterazine is resuspended to a concentration of about 1-10 mg/mL in 100% ethanol and then diluted in imaging buffer to achieve the desired imaging concentration. […]
The coelenterazine is added to wells to be imaged and the signal detected using a bioluminescence detection system such as an IVIS. […]

[2] = test system: β-cell mass (pancreatic signal); assay: In vivo bioluminescence imaging of beta cell mass after intravenous coelenterazine; set-up: species or system mice
Experimental: FIG. 3A is a digital image, for the in vivo characterization of a coelenterazine (CTZ) pancreatic signal, showing the bioluminescence imaging of mice that were fasted for 6 h or received 2 g/kg intraperitoneal glucose and maintained on 10% sucrose water for 4 h. Mice then received 40 μg CTZ intravenously and were imaged immediately. FIG. 3C is a digital image, for the in vivo characterization of a coelenterazine (CTZ) pancreatic signal, showing the bioluminescence imaging of mice treated with glucose followed by administration of 0.56, 1.4, or 3.5 mg/kg CTZ intravenously. FIG. 3D is a graph illustrating the quantification of the signal detected in FIG. 3C at 1 min intervals following CTZ injection. […] A standardized anesthetic protocol with a defined anesthetic dose and induction period (if using inhalant anesthetics) is also required. Coelenterazine is prepared at a concentration of 10 mg/mL in 100% ethanol. The coelenterazine may be further diluted in a pharmaceutically acceptable carrier selected as suitable for injection into an animal subject for imaging. […] It is important to protect the imaging solution from light and that is prepared immediately prior to use. Following anesthetic induction, the imaging solution is intravenously administered at a dose of about 1-10 mg/kg and imaging is begun immediately in using an in vivo bioluminescence imaging system.

[3] = test system: pancreas; assay: Ex vivo bioluminescence imaging of excised tissues with coelenterazine; set-up: species or system mice; conditions: ex vivo imaging of excised mouse tissues; significance P<0.05
Experimental: FIG. 2A is a digital image illustrating bioluminescence images of excised tissues from 3 mice in 1 mL PBS with 20 μg coelenterazine and imaged immediately.
Error bars represent the standard error and significance is defined as P<0.05.

[4] = test system: β-cell mass (pancreatic signal); assay: Streptozotocin-induced diabetic mouse model, coelenterazine imaging of pancreas; format: in vivo, mice
Experimental: FIGS. 4A-4D illustrate the results from a streptozotocin-induced diabetic mouse model. Mice were treated with 200 mg/kg of streptozotocin (STZ) or PBS on day 0.
Top Panel: 3-days post-treatment, mice were administered 2 g/kg glucose and maintained on 10% sucrose water. Four h later, mice were intravenously injected with 1.4 mg/kg of coelenterazine and imaged. Bottom panel: Bioluminescence imaging of the excised pancreases collected from the mice depicted in top panel.
To conclusively determine the β-cell specificity of the signal, coelenterazine was used to image the pancreas of mice that received the β-cell toxic agent streptozotocin (STZ) versus a Phosphate-Buffered Saline (PBS) control in which the β-cells were functional.

O=c1c(Cc2ccc(O)cc2)nc2c(Cc3ccccc3)[nH]c(-c3ccc(O)cc3)cn1-2 [coelenterazine, 6-(4-hydroxyphenyl)-2-[(4-hydroxyphenyl)methyl]-8-(phenylmethyl)-7H-imidazo[3,2-a]pyrazin-3-one]
coelenterazine-dependent bioluminescence signal of rat insulinoma cell lines relative to other cell lines ([1]; in the absence of any additional reagents): greater coelenterazine-dependent bioluminescence signal relative to other cell lines
time to stable maximum of signal following coelenterazine addition ([1]; in vitro, cells in imaging buffer): 15 to 45 min
time of maximum pancreatic signal intensity post-injection ([2]; intravenous, about 1-10 mg/kg): 2 to 5 min
signal of insulin-secreting β-cells compared to cells quiescent due to fasting ([2]; mice, glucose-treated vs fasted): insulin-secreting β-cells produced a greater signal
dose dependence of detectable signal intensity ([2]; mice, intravenous): dose-dependent
location of bioluminescence signal upon intravenous injection ([2]; mice, intravenous): pancreatic-specific bioluminescent signal; also recorded: a mid-upper abdominal bioluminescence signal was detected
bioluminescence signal of pancreas compared to other tissues [3]: Significantly greater signals were detected from the pancreas compared to all other tissues; also recorded: significantly elevated pancreatic signal compared to other examined non-insulin-producing tissues
pancreatic signal in STZ-treated mice versus PBS control ([4]; STZ 200 mg/kg day 0, imaging 3 days post-treatment, in vivo and ex vivo pancreas): significant difference (P=0.0000); also recorded: reduced in type I diabetic mice; also recorded: significant reduction in pancreatic signal in STZ-treated mice
correlation between pancreatic signal and blood glucose ([4]; STZ and PBS mice): correlation was significant (P=0.0317); also recorded: significant and inverse correlation

CN(N=O)C(=O)N[C@H]1C(O)O[C@H](CO)[C@@H](O)[C@@H]1O (mixture of isomers) [streptozotocin]
blood glucose values, STZ versus PBS ([4]; 200 mg/kg STZ on day 0, measured on day 3): difference (P=0.0265)
